We go through three molecules from patent publication US20230390296A1, “NOVEL TREATMENT AND PREVENTION OF SARCOPENIA-RELATED DISEASES” (KEIO UNIVERSITY, priority 2020, published 2023).

The subject of data set [1] is C2C12 cells. Kind of data set: Gene expression levels in treated cultured cells. It counts as cell-based, mouse. The method, then:
Mouse striated muscle derived cells, i.e., C2C12 cells, were cultured and treated with OK-1, ICG-001, or C-82. Gene expression levels of cells treated with OK-1, ICG-001, or C-82, and untreated cells are compared.

A short description of data set [2]: Body weight and behavior during the dosing period. It counts as in vivo, mouse. As to conditions: intraperitoneal, twice a week over three months, 20 mg/kg/day; young and old mice. As for the experimental part: (§1) OK-1 manufactured in Manufacturing Example 1 was intraperitoneally administered to young and old mice twice a week over three months. The dosage was 20 mg/kg/day.

Data set [3] has as its system old mice. Kind of data set: Muscle mass by MRI (volume of right gastrocnemius muscle/soleus muscle), with/without treadmill exercise. The data set is classed as in vivo, mouse. As for the experimental part: OK-1 was then intraperitoneally administered to each mouse twice a week at 20 mg/kg/day over 8 weeks (i.e., until reaching 23 week old and 88 week old, respectively). Treadmill exercise was conducted three times a week at 8 m/minute for 5 minutes→15 m/minute for 35 minutes while administering OK-1 twice a week at 20 mg/kg/day over 5 weeks (i.e., until reaching 28 week old and 93 week old, respectively). The muscle mass was then measured with the following equipment and conditions through MRI (FIG. 1B). MRI (MRminiSA1545, Japan REDOX) (magnetic flux density: 1.5 tesla (permanent magnet) (temporal resolution: 100 ns) was used to capture images of the lower limbs of the mice. The recovered data was converted into dicom data, and the volume of right gastrocnemius muscle/soleus muscle was quantified with Osirix Lite.

In data set [4] the test system is old mice (C57BL/6J). In words: Treadmill test of muscle strength (endurance) in young and old mice. It counts as in vivo, mouse. As to conditions: intraperitoneal, twice a week over three months, 20 mg/kg/day; young (15-week) and old (79-week) mice.
Excerpt: Decrease in endurance in old mice In order to confirm that a decrease in muscle strength is observed in mouse models (C57BL/6J) (purchased from Oriental Yeast), the muscle strength (endurance) in 15-week old young mice and 79-week-old old mice was investigated in a treadmill test in accordance with the following (FIG. 1A). Prior to recording the performance, mice were trained for 3 days to acclimate the mice to the equipment. Electric stimulation grid was adjusted to 1 mA, and the gradient was set to 15 degrees. On the first day of training, mice were induced to walk for 10 minutes at a rate of 10 m/minute, allowed to rest for 10 minutes, and then induced to walk for 10 minutes at a rate of 10 m/minute on a treadmill. On day 2 and day 3, the first two steps were the under the same conditions as day 1, and then the mice were induced to start walking at 10 m/minute. The speed was increased by 1 m/minute until reaching the maximum speed of 20 m/minute. On day 4, the maximum exercise endurance was measured. Six mice were placed on a treadmill, which was started at a belt speed of 5 m/minute for 5 minutes to let the mice warm up. The speed was increased 1 m/minute until reaching the maximum speed of 20 m/minute. After making the mice run for 5 minutes, the speed was increased from 20 m/minute to 21 m/minute for 10 minutes. The mice were then forced to run at 22 m/minute until stalling on the electric stimulation grid for 10 seconds. The distance traveled until stalling for 10 seconds was measured.
as §1
74-week old mice (C57B16/J) were purchased from Oriental Yeast. […] Muscle strength (endurance) and grip strength of mice administered with C-82 were then measured through a treadmill test and smart grip strength meter for rats and mice (Muromachi Kikai Co., Ltd.), respectively. […]

Data set [5] has as its system Activin Receptor and ACVR2B. As to conditions: cited from earlier work.

For `O=C1[C@H](Cc2ccc(O)cc2)N2C(=O)CCN(C(=O)NCc3ccccc3)[C@H]2CN1Cc1cccc2ccccc12` [ICG-001], the “gene expression levels versus untreated cells” value in data set [1] is on record as “change in gene expression similar to Example 2”.
Turning to `O=C1[C@H](Cc2ccc(O)cc2)N2C(=O)CCN(C(=O)NCc3ccccc3)[C@H]2CN1Cc1cccc2ccccc12` [compound 8], in data set [2], the “change in body weight and behavioral abnormality during the dosing period” value is “a significant change in body weight and behavioral abnormality were not observed”. Moreover, in data set [3] (20 mg/kg/day twice a week plus treadmill exercise three times a week over 5 weeks), the “muscle mass (MRI), combined use of administration with exercise” value is given as “muscle mass significantly recovers synergistically”. In data set [3] (intraperitoneal 20 mg/kg/day twice a week over 8 weeks, then 5 further weeks), the “muscle mass (MRI)” value was “increases muscle mass in old mice”. The “muscle strength (endurance) through a treadmill test” value in data set [4] is reported as “increase in muscle strength due to administration of compound 8 was observed specifically in old mice”.

B1: Bimagrumab: monoclonal antibodies (bimagrumab) developed by targeting Activin Receptor and ACVR2B (antibody, chains of the INN, looked up, V domains shown)
VH: QVQLVQSGAEVKKPGASVKVSCKASGYTFTSSYINWVRQAPGQGLEWMGTINPVSGSTSYAQKFQGRVTMTRDTSISTAYMELSRLRSDDTAVYYCARGGWFDYWGQGTLVTVSS
VL: QSALTQPASVSGSPGQSITISCTGTSSDVGSYNYVNWYQQHPGKAPKLMIYGVSKRPSGVSNRFSGSKSGNTASLTISGLQAEDEADYYCGTFAGGSYYGVFGGGTKLTVL
B1: the muscle mass result in data set [5] (background statement) is “promotes muscle differentiation to increase muscle mass”. Further, the “sarcopenia symptoms including the gait speed and grip strength” value in data set [5] (phase 2 trial completed, development discontinued in 2018) is “has not resulted in dramatic improvement in sarcopenia symptoms including the gait speed and grip strength”.
